These results are taken from ChEMBL document CHEMBL1136854, “Synthesis and pharmacological evaluation of aminopyrimidine series of 5-HT1A partial agonists” (Bioorg Med Chem Lett, 2009).

Broadly, the CLint scaled is the rate of metabolic loss divided by the concentration. Lower therefore signals slow turnover.

Molecules are shown by their SMILES.

A short description of the data set: in vitro. The following applies: human, liver microsomes. In general terms: Microsomes from liver hold many membrane-bound enzymes, among them those of drug oxidation.

Where the note is “CL”, `O=C1CC2(CCCC2)CC(=O)N1CCCCN1CCN(c2ncccn2)CC1` [BUSPIRONE] came in with a CLint scaled of 148 mL/min/kg. Take `c1cc(C2CCCN(CCc3cscn3)C2)nc(NC2CC2)n1` (centres undefined): the CLint scaled is 15 mL/min/kg. As to `Cc1[nH]c2ccc(Cl)cc2c1CCN1CCCC(c2ccnc(NC3CC3)n2)C1` (centres undefined), the CLint scaled (CL) amounted to 135 mL/min/kg. In turn, `Fc1cccc2c(CCN3CCCC(c4ccnc(NC5CC5)n4)C3)c[nH]c12` (centres undefined) had an intrinsic metabolic clearance (CLint scaled) (CL) of 28 mL/min/kg. Against the preceding compound, the CLint scaled is about 4.8-fold lower.
